Assay results published in patent US5668147A, “Quinolinecarboxylic acid derivatives and salts thereof” (Kaken Pharmaceutical Co., Ltd., priority 1993, dated 1997).

How the values were obtained:
S. aureus KP90-3 (MRSA) = test: Antibacterial activity, MIC by agar plate dilution assay; format: cell-based; parameters: unit not given here
Protocol: (§1) Antibacterial activities of the compounds of the present invention were measured as the minimum inhibitory concentration (MIC) by the agar plate dilution assay method according to the standard method of Japan Society of Chemotherapy. Ofloxacin (OFLX) was used as the control compound.

S. aureus Smith = test: as above; format: cell-based; parameters: unit not given here
Protocol: as §1

E. coli JC3 = test: as above; format: cell-based; parameters: unit not given here
Protocol: as §1

S. pyogenes Cook = test: as above; format: cell-based; parameters: unit not given here
Protocol: as §1

S. aureus JS1 (MRSA) = test: as above; format: cell-based; parameters: unit not given here
Protocol: as §1

E. faecalis 1373 = test: as above; format: cell-based; parameters: unit not given here
Protocol: as §1

[1] = test system: peripheral blood erythrocytes; test: Mutagenicity, micronucleus assay in mice; format: in vivo; conditions: 8-week-old ICR mice; abdominally administered in olive oil; dose 200 mg/kg; before and 24, 48 and 72 hours after
Protocol: Micronucleus assay was performed using 8-week-old ICR mice to confirm whether the compounds have mutagenicity. The compound of Example 21a was suspended in olive oil, and the suspension was abdominally administered to mice. The peripheral blood was obtained before and 24, 48 and 72 hours after the administration, and smeared specimens of the peripheral blood were prepared by acridine orange dying. In each specimen, 1000 erythrocytes were observed and frequency of occurrence of micronucleus was recorded. The frequency was not changed even in dose 200 mg/kg.

[2] = Acute toxicity test, oral, ICR mice; conditions: mouse, in vivo, 6-week-old ICR mice, orally, suspended in 0.5% methylcellulose
Protocol: Acute toxicity test was performed using 6-week-old ICR mice. The compound of Example 21a was used as the tested compound. The compound was suspended in a 0.5% solution of methylcellulose, and the suspension was orally administered. The value of LD50 was at least 4000 mg/kg.

Structure (SMILES) | Minimum Inhibitory Concentration (MIC) (S. aureus KP90-3 (MRSA)) | Minimum Inhibitory Concentration (MIC) (S. aureus Smith) | Minimum Inhibitory Concentration (MIC) (E. coli JC3) | Minimum Inhibitory Concentration (MIC) (S. pyogenes Cook) | Minimum Inhibitory Concentration (MIC) (S. aureus JS1 (MRSA)) | Minimum Inhibitory Concentration (MIC) (E. faecalis 1373) | frequency of occurrence of micronucleus [1] | LD50 [2] [mg/kg]
O=C(O)c1cn(C2CC2)c2c(F)c(N3C[C@@H](CO)[C@H](C(F)(F)F)C3)c(F)cc2c1=O (relative stereo) [Example 6a, 1-Cyclopropyl-6,8-difluoro-1,4-dihydro-7-(trans-3-hydroxymethyl-4-trifluoromethyl-1-pyrrolidinyl)-4-oxoquinoline-3-carboxylic acid] | 3.13 | 0.025 | 0.39 | 0.39 | 0.05 | 0.39 |  | 
O=C(O)c1cn(C2CC2)c2c(Cl)c(N3C[C@@H](CO)[C@H](C(F)(F)F)C3)c(F)cc2c1=O (relative stereo) [Example 7a] | 0.39 | ≤ 0.006 | 0.39 | 0.1 | 0.013 | 0.2 |  | 
Nc1c(F)c(N2C[C@@H](CO)[C@H](C(F)(F)F)C2)c(F)c2c1c(=O)c(C(=O)O)cn2C1CC1 (relative stereo) [Example 8a] | 3.13 | ≤ 0.006 | 0.2 | 0.39 | 0.013 | 0.2 |  | 
COc1c(N2C[C@@H](CO)[C@H](C(F)(F)F)C2)c(F)cc2c(=O)c(C(=O)O)cn(C3CC3)c12 (relative stereo) [Example 9a, 1-Cyclopropyl-6-fluoro-1,4-dihydro-7-(trans-3-hydroxymethyl-4-trifluoromethyl-1-pyrrolidinyl)-8-methoxy-4-oxoquinoline-3-carboxylic acid] | 0.78 | ≤ 0.006 | 0.39 | 0.2 | 0.013 | 0.2 |  | 
Cl.NC[C@@H]1CN(c2c(F)cc3c(=O)c(C(=O)O)cn(C4CC4)c3c2F)C[C@H]1C(F)(F)F (relative stereo) [Example 12a, 7-(Trans-3-aminomethyl-4-trifluoromethyl-1-pyrrolidinyl)-1-cyclopropyl-6,8-difluoro-1,4-dihydro-4-oxoquinoline-3-carboxylic acid hydrochloride] | 0.78 | 0.013 | 0.05 | 0.025 | 0.025 | 0.1 |  | 
NC[C@@H]1CN(c2c(F)cc3c(=O)c(C(=O)O)cn(C4CC4)c3c2Cl)C[C@H]1C(F)(F)F (relative stereo) [Example 15a] | 0.39 | ≤ 0.006 | 0.05 | 0.013 | 0.013 | 0.1 |  | 
NC[C@@H]1CN(c2c(F)c(N)c3c(=O)c(C(=O)O)cn(C4CC4)c3c2F)C[C@H]1C(F)(F)F (relative stereo) [Example 18a] | 1.56 | ≤ 0.006 | 0.025 | 0.013 | ≤ 0.006 | 0.05 |  | 
COc1c(N2C[C@@H](CN)[C@H](C(F)(F)F)C2)c(F)cc2c(=O)c(C(=O)O)cn(C3CC3)c12 (relative stereo) [Example 21a] | 0.78 | 0.013 | 0.1 | 0.025 | 0.013 | 0.1 | not changed | ≥ 4000
N[C@@H]1CN(c2c(F)cc3c(=O)c(C(=O)O)cn(C4CC4)c3c2F)C[C@H]1C(F)(F)F (relative stereo) [Example 23a] | 12.5 | 0.1 | 0.2 | 0.78 | 0.2 | 0.78 |  | 
N[C@@H]1CN(c2c(F)cc3c(=O)c(C(=O)O)cn(C4CC4)c3c2Cl)C[C@H]1C(F)(F)F (relative stereo) [Example 26a] | 3.13 | 0.05 | 0.2 | 0.39 | 0.05 | 0.39 |  | 
Nc1c(F)c(N2C[C@@H](N)[C@H](C(F)(F)F)C2)c(F)c2c1c(=O)c(C(=O)O)cn2C1CC1 (relative stereo) [Example 29a] | 25 | 0.025 | 0.05 | 0.2 | 0.05 | 0.39 |  | 
COc1c(N2C[C@@H](N)[C@H](C(F)(F)F)C2)c(F)cc2c(=O)c(C(=O)O)cn(C3CC3)c12 (relative stereo) [Example 31a] | 3.13 | 0.05 | 0.39 | 0.39 | 0.05 | 0.39 |  | 
N[C@@H]1CN(c2nc3c(cc2F)c(=O)c(C(=O)O)cn3-c2ccc(F)cc2F)C[C@H]1C(F)(F)F (relative stereo) [Example 35a] | 25 | 0.05 | 0.78 | 0.39 | 0.1 | 0.78 |  | 
CC1COc2c(N3CCN(C)CC3)c(F)cc3c(=O)c(C(=O)O)cn1c23 (centres unmarked) [OFLX, Ofloxacin, reference compound] | 25 | 0.2 | 0.1 | 0.78 | 0.39 | 1.56 |  | 
